Laboratory results: paper PMC8500670, “A selective WDR5 degrader inhibits acute myeloid leukemia in patient-derived mouse models” (Science translational medicine, 2021)
Like-named read-outs stand apart in the source and are kept apart here.

Experiments:
Experiment in all cases: biochemical
IRAK4 = IRAK4 (Homo sapiens, UniProt Q9NWZ3); set-up: kinase selectivity panel, single concentration, duplicate
Sequence of IRAK4 (Q9NWZ3 whole entry): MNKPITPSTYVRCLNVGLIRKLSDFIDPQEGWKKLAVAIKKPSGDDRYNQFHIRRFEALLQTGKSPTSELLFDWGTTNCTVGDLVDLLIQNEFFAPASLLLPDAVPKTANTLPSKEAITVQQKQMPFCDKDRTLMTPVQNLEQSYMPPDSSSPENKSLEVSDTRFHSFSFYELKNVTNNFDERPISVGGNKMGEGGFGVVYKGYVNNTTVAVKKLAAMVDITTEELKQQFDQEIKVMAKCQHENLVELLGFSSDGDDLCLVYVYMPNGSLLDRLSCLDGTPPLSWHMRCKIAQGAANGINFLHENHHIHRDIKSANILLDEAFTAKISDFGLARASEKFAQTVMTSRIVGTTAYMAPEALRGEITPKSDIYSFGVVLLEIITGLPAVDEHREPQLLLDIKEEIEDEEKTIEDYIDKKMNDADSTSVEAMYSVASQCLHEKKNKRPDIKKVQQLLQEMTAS
Description: (§1) We next assessed selectivity of MS67 against 22 protein methyltransferases (table S2) and a broad panel of common drug targets including 45 kinases (table S3) and 44 G protein–coupled receptors (GPCR), ion channels, and transporters (table S4). […] We subsequently determined that MS67 had moderate binding affinity (Ki = 1.0 ± 0.8 μM) to Sigma 2 receptor (fig. S10).

EphA3 = EphA3 (Homo sapiens, UniProt P29320); set-up: kinase selectivity panel, single concentration, duplicate
Description: as §1

FGFR1 = FGFR1 (Homo sapiens, UniProt P11362); set-up: kinase selectivity panel, single concentration, duplicate
Sequence of FGFR1 (P11362 whole entry): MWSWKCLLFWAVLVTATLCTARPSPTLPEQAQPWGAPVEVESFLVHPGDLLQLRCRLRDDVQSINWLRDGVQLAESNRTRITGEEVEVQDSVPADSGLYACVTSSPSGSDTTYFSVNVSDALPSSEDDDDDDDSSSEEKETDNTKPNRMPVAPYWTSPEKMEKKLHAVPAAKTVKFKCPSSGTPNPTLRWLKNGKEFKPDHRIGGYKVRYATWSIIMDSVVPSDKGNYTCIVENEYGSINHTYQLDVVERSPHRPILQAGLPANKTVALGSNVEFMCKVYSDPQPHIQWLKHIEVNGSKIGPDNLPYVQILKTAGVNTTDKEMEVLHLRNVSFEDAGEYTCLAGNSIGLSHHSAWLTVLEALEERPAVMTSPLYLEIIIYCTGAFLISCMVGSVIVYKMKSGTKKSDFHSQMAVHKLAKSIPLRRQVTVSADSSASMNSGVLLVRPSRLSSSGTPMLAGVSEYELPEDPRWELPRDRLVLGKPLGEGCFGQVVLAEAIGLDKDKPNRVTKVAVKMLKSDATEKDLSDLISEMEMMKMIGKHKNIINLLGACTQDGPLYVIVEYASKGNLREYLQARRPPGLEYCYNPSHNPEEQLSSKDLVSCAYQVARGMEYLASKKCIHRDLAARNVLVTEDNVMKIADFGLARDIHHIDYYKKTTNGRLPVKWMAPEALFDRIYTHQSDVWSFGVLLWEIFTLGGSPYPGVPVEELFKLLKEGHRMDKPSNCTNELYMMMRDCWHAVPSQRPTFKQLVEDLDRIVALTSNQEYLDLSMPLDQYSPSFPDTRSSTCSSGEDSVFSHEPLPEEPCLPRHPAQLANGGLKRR
Description: as §1

Lck = Lck (Homo sapiens, UniProt P06239); set-up: kinase selectivity panel, single concentration, duplicate
Sequence of Lck (P06239 whole entry): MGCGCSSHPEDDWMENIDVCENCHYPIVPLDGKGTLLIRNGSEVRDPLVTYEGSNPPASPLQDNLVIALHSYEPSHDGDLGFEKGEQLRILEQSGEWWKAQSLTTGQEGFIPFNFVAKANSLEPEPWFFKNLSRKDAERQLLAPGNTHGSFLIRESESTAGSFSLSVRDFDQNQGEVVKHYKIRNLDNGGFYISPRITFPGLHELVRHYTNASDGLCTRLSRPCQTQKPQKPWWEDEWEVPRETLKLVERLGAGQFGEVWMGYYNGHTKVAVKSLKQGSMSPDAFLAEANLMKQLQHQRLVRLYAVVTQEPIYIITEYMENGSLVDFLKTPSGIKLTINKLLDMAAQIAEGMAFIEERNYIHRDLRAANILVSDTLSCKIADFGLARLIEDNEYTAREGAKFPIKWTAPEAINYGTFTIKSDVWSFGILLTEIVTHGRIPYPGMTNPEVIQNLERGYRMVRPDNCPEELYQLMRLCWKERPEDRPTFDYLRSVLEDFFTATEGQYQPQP
Description: as §1

JNK1α1 = target: T1, JNK1α1 (Homo sapiens, UniProt P45983); set-up: kinase selectivity panel, single concentration, duplicate
T1 construct: gene MAPK8; isoform alpha1
T1 sequence (P45983 whole entry, canonical isoform): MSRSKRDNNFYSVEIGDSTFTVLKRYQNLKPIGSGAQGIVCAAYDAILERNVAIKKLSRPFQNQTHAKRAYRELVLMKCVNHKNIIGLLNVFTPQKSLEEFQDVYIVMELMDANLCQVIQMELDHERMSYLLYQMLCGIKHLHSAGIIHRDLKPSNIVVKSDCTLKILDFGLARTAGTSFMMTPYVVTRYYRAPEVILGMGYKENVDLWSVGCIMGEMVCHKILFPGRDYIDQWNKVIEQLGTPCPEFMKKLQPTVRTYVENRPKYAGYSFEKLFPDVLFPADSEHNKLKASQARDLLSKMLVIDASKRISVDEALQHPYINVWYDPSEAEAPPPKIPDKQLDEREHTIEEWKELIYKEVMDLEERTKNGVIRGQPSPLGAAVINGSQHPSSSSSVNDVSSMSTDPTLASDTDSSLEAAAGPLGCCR
Description: as §1

cSRC = target: T2, cSRC (Homo sapiens, UniProt P12931); set-up: kinase selectivity panel, single concentration, duplicate
T2 construct: gene SRC
T2 sequence (P12931 whole entry): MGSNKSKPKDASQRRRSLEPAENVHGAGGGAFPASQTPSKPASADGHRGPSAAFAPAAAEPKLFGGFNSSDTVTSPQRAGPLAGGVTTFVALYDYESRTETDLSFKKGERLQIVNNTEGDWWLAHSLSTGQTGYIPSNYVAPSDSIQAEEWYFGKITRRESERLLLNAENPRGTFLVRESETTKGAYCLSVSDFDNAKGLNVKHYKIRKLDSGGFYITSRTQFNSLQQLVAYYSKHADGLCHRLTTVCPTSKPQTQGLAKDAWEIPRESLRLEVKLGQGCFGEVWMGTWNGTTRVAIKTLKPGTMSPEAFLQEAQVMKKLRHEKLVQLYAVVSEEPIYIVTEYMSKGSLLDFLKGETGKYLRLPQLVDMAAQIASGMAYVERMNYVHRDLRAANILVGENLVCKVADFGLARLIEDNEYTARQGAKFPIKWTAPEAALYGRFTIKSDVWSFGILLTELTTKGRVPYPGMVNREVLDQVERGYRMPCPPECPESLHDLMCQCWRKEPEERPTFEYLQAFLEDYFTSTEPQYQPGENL
Description: as §1

PAK4 = PAK4 (Homo sapiens, UniProt O96013); set-up: kinase selectivity panel, single concentration, duplicate
Sequence of PAK4 (O96013 whole entry): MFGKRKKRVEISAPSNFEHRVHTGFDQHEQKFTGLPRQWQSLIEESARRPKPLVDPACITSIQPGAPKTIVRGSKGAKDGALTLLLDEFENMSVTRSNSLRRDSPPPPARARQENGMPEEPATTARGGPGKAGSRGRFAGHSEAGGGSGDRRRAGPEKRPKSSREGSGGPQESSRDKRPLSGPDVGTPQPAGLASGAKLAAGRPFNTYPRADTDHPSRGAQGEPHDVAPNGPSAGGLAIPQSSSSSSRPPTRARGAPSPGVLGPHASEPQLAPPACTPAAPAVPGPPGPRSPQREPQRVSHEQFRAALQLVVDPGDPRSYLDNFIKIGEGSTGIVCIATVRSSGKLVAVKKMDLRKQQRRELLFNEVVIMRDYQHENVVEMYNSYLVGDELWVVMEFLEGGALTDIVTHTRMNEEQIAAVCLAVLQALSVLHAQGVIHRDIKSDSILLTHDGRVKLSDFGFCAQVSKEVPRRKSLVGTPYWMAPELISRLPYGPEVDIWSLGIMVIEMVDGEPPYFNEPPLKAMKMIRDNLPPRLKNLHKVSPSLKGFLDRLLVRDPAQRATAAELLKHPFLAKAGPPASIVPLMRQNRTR
Description: as §1

PRMT8 = PRMT8 (Homo sapiens, UniProt Q9NR22); set-up: protein methyltransferase selectivity panel, enzyme activity relative to DMSO controls, single concentration in duplicate; settings: Substrate:=Histone H4
Sequence of PRMT8 (Q9NR22 whole entry): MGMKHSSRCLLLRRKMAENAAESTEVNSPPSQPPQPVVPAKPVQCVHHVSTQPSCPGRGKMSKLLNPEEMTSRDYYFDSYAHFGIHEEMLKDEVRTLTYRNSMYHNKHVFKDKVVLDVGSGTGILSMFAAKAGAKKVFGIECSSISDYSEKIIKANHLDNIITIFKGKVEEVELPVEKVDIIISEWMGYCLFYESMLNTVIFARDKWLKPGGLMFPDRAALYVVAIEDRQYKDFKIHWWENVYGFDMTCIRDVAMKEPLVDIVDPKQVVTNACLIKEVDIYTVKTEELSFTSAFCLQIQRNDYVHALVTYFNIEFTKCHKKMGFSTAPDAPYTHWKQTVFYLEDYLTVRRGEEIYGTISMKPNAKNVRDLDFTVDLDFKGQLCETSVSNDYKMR
Description: as §1

SUV39H1 = target: T3, SUV39H1 (Homo sapiens, UniProt O43463); set-up: protein methyltransferase selectivity panel, enzyme activity relative to DMSO controls, single concentration in duplicate; settings: Substrate:=Histone H3
T3 sequence (O43463 1-412): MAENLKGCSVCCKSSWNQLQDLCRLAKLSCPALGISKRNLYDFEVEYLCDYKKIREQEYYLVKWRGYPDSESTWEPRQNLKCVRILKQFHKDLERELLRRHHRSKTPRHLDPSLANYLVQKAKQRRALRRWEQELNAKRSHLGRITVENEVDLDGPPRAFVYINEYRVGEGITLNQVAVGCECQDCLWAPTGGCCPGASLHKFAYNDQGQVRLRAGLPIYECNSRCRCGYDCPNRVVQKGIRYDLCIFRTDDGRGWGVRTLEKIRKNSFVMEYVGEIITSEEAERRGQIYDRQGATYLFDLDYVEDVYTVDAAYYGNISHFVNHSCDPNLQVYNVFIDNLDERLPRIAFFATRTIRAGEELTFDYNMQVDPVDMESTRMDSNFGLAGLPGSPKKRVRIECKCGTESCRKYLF
Description: as §1

SET8 = target: T4, SET8 (Homo sapiens, UniProt Q9NQR1); set-up: protein methyltransferase selectivity panel, enzyme activity relative to DMSO controls, single concentration in duplicate; settings: Substrate:=Nucleosomes
T4 construct: gene KMT5A
T4 sequence (Q9NQR1 1-393): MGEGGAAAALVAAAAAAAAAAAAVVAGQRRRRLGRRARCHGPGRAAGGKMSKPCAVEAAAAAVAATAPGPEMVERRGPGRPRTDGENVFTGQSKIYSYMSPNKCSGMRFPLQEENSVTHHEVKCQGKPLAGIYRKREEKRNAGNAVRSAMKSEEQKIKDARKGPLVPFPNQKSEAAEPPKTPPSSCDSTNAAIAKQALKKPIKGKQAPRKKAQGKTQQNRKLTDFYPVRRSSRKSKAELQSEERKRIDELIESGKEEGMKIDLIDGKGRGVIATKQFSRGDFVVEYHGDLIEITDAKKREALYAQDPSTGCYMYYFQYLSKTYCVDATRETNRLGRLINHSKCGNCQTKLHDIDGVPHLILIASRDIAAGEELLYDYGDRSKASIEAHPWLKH
Description: as §1

PRMT6 = PRMT6 (Homo sapiens, UniProt Q96LA8); set-up: protein methyltransferase selectivity panel, enzyme activity relative to DMSO controls, single concentration in duplicate; settings: Substrate:=GST-GAR
Sequence of PRMT6 (Q96LA8 whole entry): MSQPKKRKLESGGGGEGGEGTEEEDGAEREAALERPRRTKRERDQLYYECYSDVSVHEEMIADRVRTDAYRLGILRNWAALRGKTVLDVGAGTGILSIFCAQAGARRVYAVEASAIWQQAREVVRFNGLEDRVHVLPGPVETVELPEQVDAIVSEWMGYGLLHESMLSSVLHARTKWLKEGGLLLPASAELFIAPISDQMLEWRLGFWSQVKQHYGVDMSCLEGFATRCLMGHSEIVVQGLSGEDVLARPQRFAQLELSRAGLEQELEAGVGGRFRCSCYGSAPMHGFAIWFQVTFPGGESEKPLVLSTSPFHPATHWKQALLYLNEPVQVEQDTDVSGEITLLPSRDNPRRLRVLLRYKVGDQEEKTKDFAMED
Description: as §1

PRMT4 = target: T5, PRMT4 (Homo sapiens, UniProt Q86X55); set-up: protein methyltransferase selectivity panel, enzyme activity relative to DMSO controls, single concentration in duplicate; settings: Substrate:=Histone H3
T5 construct: gene CARM1
T5 sequence (Q86X55 1-608): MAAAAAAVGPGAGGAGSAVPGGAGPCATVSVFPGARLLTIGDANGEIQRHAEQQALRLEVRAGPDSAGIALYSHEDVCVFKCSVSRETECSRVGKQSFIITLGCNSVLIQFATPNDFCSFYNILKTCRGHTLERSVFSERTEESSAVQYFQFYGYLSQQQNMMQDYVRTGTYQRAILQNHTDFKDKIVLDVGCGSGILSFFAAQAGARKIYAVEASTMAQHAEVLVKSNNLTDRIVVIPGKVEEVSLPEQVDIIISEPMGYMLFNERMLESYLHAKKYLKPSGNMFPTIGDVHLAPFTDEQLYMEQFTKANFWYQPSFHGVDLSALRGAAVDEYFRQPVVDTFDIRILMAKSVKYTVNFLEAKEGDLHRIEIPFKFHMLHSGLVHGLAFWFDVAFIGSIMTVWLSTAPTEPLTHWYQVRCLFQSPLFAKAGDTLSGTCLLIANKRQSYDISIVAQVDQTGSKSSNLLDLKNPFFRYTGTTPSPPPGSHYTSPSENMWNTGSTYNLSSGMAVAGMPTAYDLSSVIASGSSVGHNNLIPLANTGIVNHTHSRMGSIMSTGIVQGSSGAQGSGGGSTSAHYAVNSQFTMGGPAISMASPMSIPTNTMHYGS
Description: as §1

[1] = read-out: Enzyme % Activity (relative to DMSO controls) / MS67 / 10 / Data 1:
[2] = read-out: Enzyme % Activity (relative to DMSO controls) / MS67 / 10 / Data 2:

**Q.** `Cc1ncsc1-c1ccc([C@H](C)NC(=O)[C@@H]2C[C@@H](O)CN2C(=O)[C@@H](NC(=O)CNC(=O)c2ccc(F)c(-c3ccc(N4C[C@@H](C)N(C)[C@@H](C)C4)c(NC(=O)c4c[nH]c(=O)cc4C(F)(F)F)c3)c2)C(C)(C)C)cc1` [MS67] was tested. Which inhibition at 1 µM (IRAK4) did it give?
**A.** Its inhibition at 1 µM is < 10%.

**Q.** What about the inhibition at 1 µM (EphA3) of the same compound?
**A.** Its inhibition at 1 µM is < 10%.

**Q.** And the inhibition at 1 µM (FGFR1)?
**A.** The inhibition at 1 µM was < 10%.

**Q.** And the inhibition at 1 µM (Lck)?
**A.** The inhibition at 1 µM was < 10%.

**Q.** What about the inhibition at 1 µM (JNK1α1) of the same compound?
**A.** Its inhibition at 1 µM is < 10%.

**Q.** And the inhibition at 1 µM (cSRC)?
**A.** The inhibition at 1 µM was < 10%.

**Q.** And the inhibition at 1 µM (PAK4)?
**A.** The inhibition at 1 µM was < 10%.

**Q.** And the remaining activity at 10 µM (PRMT8; [1])?
**A.** Its remaining activity at 10 µM is 102%.

**Q.** What about the remaining activity at 10 µM (PRMT8; [2]) of the same compound?
**A.** The remaining activity at 10 µM was 98.1%.

**Q.** And the remaining activity at 10 µM (SUV39H1; [1])?
**A.** The remaining activity at 10 µM was 96%.

**Q.** What about the remaining activity at 10 µM (SUV39H1; [2]) of the same compound?
**A.** Its remaining activity at 10 µM is 105%.

**Q.** What about the remaining activity at 10 µM (SET8; [1]) of the same compound?
**A.** The remaining activity at 10 µM was 112%.

**Q.** What about the remaining activity at 10 µM (SET8; [2]) of the same compound?
**A.** The remaining activity at 10 µM was 113%.

**Q.** What about the remaining activity at 10 µM (PRMT6; [1]) of the same compound?
**A.** The remaining activity at 10 µM was 97.1%.

**Q.** What about the remaining activity at 10 µM (PRMT6; [2]) of the same compound?
**A.** The remaining activity at 10 µM was 95.1%.

**Q.** What about the remaining activity at 10 µM (PRMT4; [1]) of the same compound?
**A.** The remaining activity at 10 µM was 107%.

**Q.** And the remaining activity at 10 µM (PRMT4; [2])?
**A.** Its remaining activity at 10 µM is 98.9%.
